According to US20250101034A1, “COMPOSITIONS USEFUL FOR MODULATING SPLICING” (SKYHAWK THERAPEUTICS, INC., priority 2021, published 2025):

Experiments:
[1] = test system: ATXN3 transcripts containing exon 4 (E4E5); assay: ATXN3 quantitative splicing assay (qPCR, SK-N-MC cells); assay type: cell-based; conditions: Homo sapiens, 24 h treatment, qPCR E4E5 primers/probe, read-out: ATXN3 Potency - Splicing E4E5 IC50
Description: Human neuroblastoma SK-N-MC cells were plated in 384-well plates at 20,000 cells/well. Twenty-four hours after plating, cells were treated with compounds for 24 h at appropriate concentrations ranging from 30 μM to 0.6 nM (0.3% DMSO). Treated cells were lysed in 15 μL of lysis buffer, and cDNA was synthesized using the Fast Advanced Cells-to-Ct kit. Two μL of each cDNA was used in qPCR reactions to confirm the exon 4 skipped transcripts of ATXN3. A second set of primers/probe E4E5 was used to detect the transcripts containing exon 4. The third set of primers/probe E8E9 was used to detect total gene level of ATXN3. The qPCR reactions were prepared in 384-well plates in 10 μL volume, using TaqMan™ Fast Advanced Master Mix with primers and probes shown in the table below. Reactions were run in a Quant Studio 6 qPCR instrument with default settings.
The primers and probes are listed below in Table 4.

total ATXN3 protein = assay: ATXN3 total protein assay (MSD, SK-N-MC cells); assay type: cell-based, Human; conditions: 48 hours incubation, read-out: ATXN3 Potency - Protein IC50
Description: Human neuroblastoma SK-N-MC cells were seeded at 10,000 cells/well in 384 well plates one day prior to compound treatment. The concentrations of compounds were tested at appropriate doses ranging from 30 μM to 0.6 nM. After incubation for 48 hours, the cells were lysed with 25 μL of lysis buffer containing protease inhibitors, and total ATXN3 protein levels were assessed by Mesoscale Discovery (MSD) assay developed with one pair of anti-ATXN3 antibodies. The capture and detect antibodies were raised in mouse and rabbit respectively. Anti-rabbit MSD-ST antibody was used for secondary antibody.
ATXN3 recombinant protein was used for standards. The readouts were captured with 35 μL of MSD read buffer and multi-array 384-well high binding plates.

Cc1c(C[C@H](C)N)sc2c(NCc3sccc3F)cnnc12 [Compound 10, 6-[(2S)-2-aminopropyl]-N-[(3-fluorothiophen-2-yl)methyl]-7-methylthieno[3,2-c]pyridazin-4-amine]
IC50 [1]: 0.501 to 5 µM | IC50 (total ATXN3 protein): 0.501 to 5 µM

Cc1csc2c(NCc3ccco3)cnnc12 [Compound 11, N-[(furan-2-yl)methyl]-7-methylthieno[3,2-c]pyridazin-4-amine]
IC50 [1]: 10 to 40 µM | IC50 (total ATXN3 protein): 10 to 40 µM

Cc1csc2c(NCc3nccs3)cnnc12 [Compound 12, 7-methyl-N-[(1,3-thiazol-2-yl)methyl]thieno[3,2-c]pyridazin-4-amine]
IC50 [1]: 10 to 40 µM | IC50 (total ATXN3 protein): 10 to 40 µM

Cc1c(C[C@H](C)N)sc2c(NCn3cccn3)cnnc12 [Compound 15, 6-[(2S)-2-aminopropyl]-7-methyl-N-[(1H-pyrazol-1-yl)methyl]thieno[3,2-c]pyridazin-4-amine]
IC50 [1]: 0.501 to 5 µM | IC50 (total ATXN3 protein): 0.501 to 5 µM

Cc1c(C[C@H](C)N)sc2c(NCc3ccc(F)s3)cnnc12 [Compound 16, 6-[(2S)-2-aminopropyl]-N-[(5-fluorothiophen-2-yl)methyl]-7-methylthieno[3,2-c]pyridazin-4-amine]
IC50 [1]: 0.501 to 5 µM | IC50 (total ATXN3 protein): 0.501 to 5 µM

Cc1c(C[C@H](C)N)sc2c(NCc3ccsc3F)cnnc12 [Compound 17, 6-[(2S)-2-aminopropyl]-N-[(2-fluorothiophen-3-y1)methyl]-7-methylthieno[3,2-c]pyridazin-4-amine]
IC50 [1]: 5 to 10 µM | IC50 (total ATXN3 protein): 10 to 40 µM

Cc1c(C[C@H](C)N)sc2c(NCc3ccns3)cnnc12 [Compound 18, 6-[(2S)-2-aminopropyl]-7-methyl-N-[(1,2-thiazol-5-yl)methyl]thieno[3,2-c]pyridazin-4-amine]
IC50 [1]: 10 to 40 µM | IC50 (total ATXN3 protein): 10 to 40 µM

Cc1nnc2c(C)c(C[C@H](C)N)sc2c1NCc1cccs1 [Compound 19, 6-[(2S)-2-aminopropyl]-3,7-dimethyl-N-[(thiophen-2-yl)methyl]thieno[3,2-c]pyridazin-4-amine]
IC50 [1]: 10 to 40 µM | IC50 (total ATXN3 protein): 10 to 40 µM

Cc1c(C[C@@H](N)CC(C)C)sc2c(NCc3ccco3)cnnc12 [Compound 20, 6-[(2S)-2-amino-4-methylpentyl]-N-[(furan-2-y1)methyl]-7-methylthieno[3,2-c]pyridazin-4-amine]
IC50 [1]: 5 to 10 µM | IC50 (total ATXN3 protein): 5 to 10 µM

Cc1c(CCN)sc2c(NCc3ccco3)cnnc12 [Compound 21, 6-(2-aminoethyl)-N-[(furan-2-yl)methyl]-7-methylthieno[3,2-c]pyridazin-4-amine]
IC50 [1]: 10 to 40 µM | IC50 (total ATXN3 protein): 10 to 40 µM

COc1c(C[C@H](C)N)sc2c(NCc3cccs3)cnnc12 [Compound 22, (S)-6-(2-aminopropyl)-7-methoxy-N-(thiophen-2-ylmethyl)thieno[3,2-c]pyridazin-4-amine]
IC50 [1]: 0.501 to 5 µM | IC50 (total ATXN3 protein): 0.501 to 5 µM

CCc1c(C[C@H](C)N)sc2c(NCc3cccs3)cnnc12 [Compound 23, 6-[(2S)-2-aminopropyl]-7-ethyl-N-[(thiophen-2-yl)methyl]thieno[3,2-c]pyridazin-4-amine]
IC50 [1]: 5 to 10 µM | IC50 (total ATXN3 protein): 5 to 10 µM

C[C@H](N)Cc1sc2c(NCc3cccs3)cnnc2c1C#N [Compound 24, (S)-6-(2-aminopropyl)-4-((thiophen-2-ylmethyl)amino)thieno[3,2-c]pyridazine-7-carbonitrile]
IC50 [1]: 0.501 to 5 µM | IC50 (total ATXN3 protein): 0.501 to 5 µM

Cc1c([C@@H](C)[C@H](C)N)sc2c(NCc3cccs3)cnnc12 [Compound 25]
IC50 [1]: 10 to 40 µM | IC50 (total ATXN3 protein): 10 to 40 µM

Cc1c([C@H](C)[C@H](C)N)sc2c(NCc3cccs3)cnnc12 [Compound 26]
IC50 [1]: 10 to 40 µM | IC50 (total ATXN3 protein): 10 to 40 µM

Cc1c(C[C@@H](N)CC#N)sc2c(NCc3cccs3)cnnc12 [Compound 27, (3S)-3-amino-4-(7-methyl-4-{[(thiophen-2-yl)methyl]amino}thieno[3,2-c]pyridazin-6-yl)butanenitrile]
IC50 [1]: 0.501 to 5 µM | IC50 (total ATXN3 protein): 5 to 10 µM

Cc1c(C[C@@H](N)CC(F)F)sc2c(NCc3cccs3)cnnc12 [Compound 28, 6-[(2S)-2-amino-4,4-difluorobutyl]-7-methyl-N-[(thiophen-2-yl)methyl]thieno[3,2-c]pyridazin-4-amine]
IC50 [1]: 10 to 40 µM | IC50 (total ATXN3 protein): 10 to 40 µM

Cc1c(C[C@@H](N)CCO)sc2c(NCc3ccco3)cnnc12 [Compound 29, (3S)-3-amino-4-(4-{[(furan-2-yl)methyl]amino}-7-methylthieno[3,2-c]pyridazin-6-yl)butan-1-ol]
IC50 [1]: 0.501 to 5 µM | IC50 (total ATXN3 protein): 0.501 to 5 µM

CSC[C@H](N)Cc1sc2c(NCc3ccco3)cnnc2c1C [Compound 30, 6-[(2R)-2-amino-3-(methylsulfanyl)propyl]-N-[(furan-2-yl)methyl]-7-methylthieno[3,2-c]pyridazin-4-amine]
IC50 [1]: 0.501 to 5 µM | IC50 (total ATXN3 protein): 0.501 to 5 µM

Cc1c(C[C@@H](N)CCF)sc2c(NCc3ccco3)cnnc12 [Compound 31, 6-[(2S)-2-amino-4-fluorobutyl]-N-[(furan-2-yl)methyl]-7-methylthieno[3,2-c]pyridazin-4-amine]
IC50 [1]: 0.501 to 5 µM | IC50 (total ATXN3 protein): 0.501 to 5 µM

Cc1c(C[C@@H](N)CS(C)(=O)=O)sc2c(NCc3ccco3)cnnc12 [Compound 32, 6-[(2R)-2-amino-3-methanesulfonylpropyl]-N-[(furan-2-yl)methyl]-7-methylthieno[3,2-c]pyridazin-4-amine]
IC50 [1]: 10 to 40 µM | IC50 (total ATXN3 protein): 10 to 40 µM

Cc1c(C[C@@H](N)C[S+](C)[O-])sc2c(NCc3ccco3)cnnc12 (stereo partly drawn) [Compound 33, 6-[(2R)-2-amino-3-methanesulfinylpropyl]-N-[(furan-2-yl)methyl]-7-methylthieno[3,2-c]pyridazin-4-amine]
IC50 [1]: 10 to 40 µM | IC50 (total ATXN3 protein): 10 to 40 µM

C=C(C)Cc1sc2c(NCc3ccco3)cnnc2c1C [Compound 34, N-[(furan-2-yl)methyl]-7-methyl-6-(2-methylprop-2-en-1-yl)thieno[3,2-c]pyridazin-4-amine]
IC50 [1]: 10 to 40 µM | IC50 (total ATXN3 protein): 10 to 40 µM

C[C@H](N)Cc1sc2c(NCc3cccs3)cnnc2c1Br [Compound 35, 6-[(2S)-2-aminopropyl]-7-bromo-N-[(thiophen-2-yl)methyl]thieno[3,2-c]pyridazin-4-amine]
IC50 [1]: 0.101 to 0.5 µM | IC50 (total ATXN3 protein): 0.101 to 0.5 µM

C[C@H](N)Cc1sc2c(NCc3cccs3)cnnc2c1Cl [Compound 36, 6-[(2S)-2-aminopropyl]-7-chloro-N-[(thiophen-2-yl)methyl]thieno[3,2-c]pyridazin-4-amine]
IC50 [1]: 0.101 to 0.5 µM | IC50 (total ATXN3 protein): 0.101 to 0.5 µM

C=C(C)c1sc2c(NCc3cccs3)cnnc2c1C [Compound 37, 7-methyl-6-(prop-1-en-2-yl)-N-(thiophen-2-ylmethyl)thieno[3,2-c]pyridazin-4-amine]
IC50 [1]: 10 to 40 µM | IC50 (total ATXN3 protein): 10 to 40 µM

Cc1c(C[C@@H](N)CC#N)sc2c(NCc3ccco3)cnnc12 [Compound 38, (3S)-3-amino-4-(4-{[(furan-2-yl)methyl]amino}-7-methylthieno[3,2-c]pyridazin-6-yl)butanenitrile]
IC50 [1]: 5 to 10 µM | IC50 (total ATXN3 protein): 5 to 10 µM

C[C@H](N)Cc1cc2nncc(NCc3cccs3)c2s1 [Compound 39, 6-[(2S)-2-aminopropyl]-N-[(thiophen-2-yl)methyl]thieno[3,2-c]pyridazin-4-amine]
IC50 [1]: 0.501 to 5 µM | IC50 (total ATXN3 protein): 0.501 to 5 µM

CCc1csc2c(NCc3cccs3)cnnc12 [Compound 40, 7-ethyl-N-[(thiophen-2-yl)methyl]thieno[3,2-c]pyridazin-4-amine]
IC50 [1]: 10 to 40 µM | IC50 (total ATXN3 protein): 10 to 40 µM

Cc1c(C[C@H](C)N)sc2c(NCn3cccc3)cnnc12 [Compound 43, 6-[(2S)-2-aminopropyl]-7-methyl-N-[(1H-pyrrol-1-yl)methyl]thieno[3,2-c]pyridazin-4-amine]
IC50 [1]: 5 to 10 µM | IC50 (total ATXN3 protein): 5 to 10 µM

Cc1c(C[C@H](C)N)sc2c(NCc3cncs3)cnnc12 [Compound 44, 6-[(2S)-2-aminopropyl]-7-methyl-N-[(1,3-thiazol-5-yl)methyl]thieno[3,2-c]pyridazin-4-amine]
IC50 [1]: 10 to 40 µM | IC50 (total ATXN3 protein): 10 to 40 µM

Cc1c(C[C@H](C)N)sc2c(NCc3cc(F)cs3)cnnc12 [Compound 45, 6-[(2S)-2-aminopropyl]-N-[(4-fluorothiophen-2-yl)methyl]-7-methylthieno[3,2-c]pyridazin-4-amine]
IC50 [1]: 0.501 to 5 µM | IC50 (total ATXN3 protein): 0.501 to 5 µM

Cc1c(C[C@H](C)N)sc2c(NCc3cnco3)cnnc12 [Compound 46, 6-[(2S)-2-aminopropyl]-7-methyl-N-[(1,3-oxazol-5-yl)methyl]thieno[3,2-c]pyridazin-4-amine]
IC50 [1]: 10 to 40 µM | IC50 (total ATXN3 protein): 10 to 40 µM

Cc1c(C[C@@H](N)CCF)sc2c(NCc3cccs3)cnnc12 [Compound 48, 6-[(2S)-2-amino-4-fluorobutyl]-7-methyl-N-(thiophen-2-ylmethyl)thieno[3,2-c]pyridazin-4-amine]
IC50 [1]: 0.501 to 5 µM | IC50 (total ATXN3 protein): 0.501 to 5 µM

Cc1c(C[C@@H](C)N)sc2c(NCc3cccs3)cnnc12 [Compound 49, 6-[(2R)-2-aminopropyl]-7-methyl-N-[(thiophen-2-yl)methyl]thieno[3,2-c]pyridazin-4-amine]
IC50 [1]: 10 to 40 µM | IC50 (total ATXN3 protein): 10 to 40 µM
